This note sets out measurements from patent publication US11242351B2, “Tricyclic inhibitors of the BCL6 BTB domain protein-protein interaction and uses thereof” (priority 2017, dated 2022).

The test system of test [1] is Karpas422 cells. Put plainly: Tumor cell growth inhibition assay. The class given is cell-based. To be noted: Homo sapiens, KARPAS-422, 144 h, read-out: GI Karpas EC50. An outline of the steps:
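Karpas422 cells were dosed over a 10-point concentration range (top 5 μM) and grown 6 days at 37 °C, 5% CO2, in Alpha-MEM with 10% FBS. Viability was read as ATPlite luminescence.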

Test [2] concerns BCL6 reporter construct in SuDHL4-3×BCL6-TK-Luc cells. Put plainly: Cell-based luciferase assay (BCL6 reporter). To be noted: 48 h, read-out: Luc IC50. An outline of the steps:
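SuDHL4 cells stably carrying a 3×BCL6-site TK-promoter firefly luciferase reporter, 15,000 cells/well, dosed over 10 concentrations (top 10 μM) and cultured two days at 37° C, 5% CO2. Luciferase luminescence read after room-temperature equilibration with neolite reagent.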

The target of test [3] is BCL6 BTB domain (biotin-thrombin-BCL6 amino acids 1-129) (Homo sapiens (Human), UniProt P41182). Kind of test: Surface Plasmon Resonance (SPR) assay. It counts as binding. Particulars: Biacore T200, single cycle kinetic analysis. On the procedure:
Surface Plasmon Resonance (SPR) Assay
SPR studies were performed using a Biacore™ T200 instrument (GE Health Sciences Inc.). […] The Biacore flow rate was set at 100 μl/min. […] Curve fitting and KD calculations were performed with the Biacore T200 Evaluation software (GE Health Sciences Inc).

Setting [4] is: Karpas422 cells, six days, ATPlite.
[5] abbreviates: SuDHL4-3×BCL6-TK-Luc cells, two days.

Where two headings read alike, the source gives them in different places.

For the compound `CC1Cc2nc3c(c(-c4cc(C(N)=O)c(O)c5c4OCO5)cn3CC(=O)Nc3cc(N4CCOC[C@@H]4C)ncc3Cl)c(=O)n2C1` (stereo partly drawn) [I-88, 7-(1-(2-((5-chloro-2-((S)-3-methylmorpho-lino)pyridin-4-yl)amino)-2-oxoethyl)-7-methyl-4-oxo-4,6,7,8-tetrahydro-1H-dipyrrolo[1,2-a:2′,3′-d]pyrimidin-3-yl)-4-hydroxybenzo[d][1,3] dioxole-5-carboxamide], the EC50 in test [1] (setting [4]) worked out at 17.6 nM. The IC50 in test [2] (setting [5]) is 39.4 nM. Further, the equilibrium dissociation constant (Kd) in test [3] was determined as 2.14 nM.

On to `CCN1CCN(c2cc(NC(=O)Cn3cc(-c4cc(C(N)=O)c(O)c5c4OCO5)c4c(=O)n5c(nc43)CC(C)C5)c(Cl)c(F)n2)[C@@H](C)C1` (stereo partly drawn) [I-89, 7-(1-(2-((3-chloro-6-((S)-4-ethyl-2-methyl-piperazin-1-yl)-2-fluoropyridin-4-yl)amino)-2-oxoethyl)-7-methyl-4-oxo-4,6,7,8-tetrahydro-1H-dipyrrolo[1,2-a:2′,3′-d]pyrimidin-3-yl)-4-hydroxybenzo[d][1,3] dioxole-5-carboxamide], for which, in test [1] (setting [4]), the EC50 is 11.1 nM. Besides, the IC50 in test [2] (setting [5]) came out at 12.9 nM. In test [3], this compound returned a Kd of 1.36 nM.

`C[C@H]1CNCCN1c1cc(NC(=O)Cn2cc(-c3cc(C(N)=O)c(O)c4c3OCO4)c3c(=O)n4c(nc32)CCC4)c(Cl)c(F)n1` [I-90, (S)-7-(1-(2-((3-chloro-2-fluoro-6-(2-methyl-piperazin-1-yl)pyridin-4-yl)amino)-2-oxo-ethyl)-4-oxo-4,6,7,8-tetrahydro-1H-dipyrrolo [1,2-a:2′,3′-d]pyrimidin-3-yl)-4-hydroxybenzo [d][1,3]dioxole-5-carboxamide]: the 50% effective concentration (EC50) in test [1] (setting [4]) stood at 22 nM. Further, the IC50 in test [2] (setting [5]) was 23.5 nM. Binding in test [3] was characterised by a dissociation constant (Kd) of 0.7 nM.

As for `COc1c(-c2cn(CC(=O)Nc3cc(N4CCN(C)C[C@@H]4C)nc(F)c3Cl)c3nc4n(c(=O)c23)CCC4)cc(C(N)=O)c(O)c1F` [I-91, (S)-5-(1-(2-((3-chloro-6-(2,4-dimethylpipera-zin-1-yl)-2-fluoro-pyridin-4-yl)amino)-2-oxoethyl)-4-oxo-4,6,7,8-tetrahydro-1H-dipyrrolo [1,2-a:2′,3′-d]pyrimidin-3-yl)-3-fluoro-2-hydroxy-4-methoxy-benzamide], in test [1], the EC50 was 1790 nM. The IC50 in test [2] turned out to be 1030 nM. This compound displayed a Kd in test [3] of 94.7 nM.

`C[C@H]1CN(C)CCN1c1cc(NC(=O)Cn2cc(-c3cc(C(N)=O)c(O)c4c3OCO4)c3c(=O)n4c(nc32)CC(C)(C)C4)c(Cl)c(F)n1` [I-92, (S)-7-(1-(2-((3-chloro-6-(2,4-dimethylpipera-zin-1-yl)-2-fluoro-pyridin-4-yl)amino)-2-oxoethyl)-7,7-dimethyl-4-oxo-4,6,7,8-tetra-hydro-1H-dipyrrolo [1,2-a:2′,3′-d]pyrimi-din-3-yl)-4-hydroxy-benzo[d][1,3]dioxole-5-carboxamide]: in test [1] (setting [4]), the EC50 was found to be 9.22 nM. In test [2] (setting [5]), the IC50 is 12.4 nM. Also, in test [3], binding was put at a Kd of 0.87 nM.

Take `C[C@H]1CNCCN1c1cc(NC(=O)Cn2cc(-c3cc(F)c(O)c(C(N)=O)c3)c3c(=O)n4c(nc32)CCC4)c(Cl)c(F)n1` [I-93, (S)-5-(1-(2-((3-chloro-2-fluoro-6-(2-methyl-piperazin-1-yl)pyridin-4-yl)amino)-2-oxoethyl)-4-oxo-4,6,7,8-tetrahydro-1H-dipyrrolo[1,2-a:2′,3′-d]pyrimidin-3-yl)-3-fluoro-2-hydroxy-benzamide]: in test [1] (setting [4]), the EC50 is 83.9 nM. In addition, in test [2] (setting [5]), the IC50 was determined as 140 nM. The compound also came in with a Kd in test [3] of 1.79 nM.

In the case of `C[C@H]1CN(C)CCN1c1cc(NC(=O)Cn2cc(-c3cc(C(N)=O)c(O)c4c3OCO4)c3c(=O)n4c(nc32)COCC4)c(Cl)c(F)n1` [I-94, (S)-7-(1-(2-((3-chloro-6-(2,4-dimethylpipera-zin-1-yl)-2-fluoro-pyridin-4-yl)amino)-2-oxoethyl)-4-oxo-4,6,7,9-tetrahydro-1H-pyrrolo[2′,3′:4,5]pyri-mido[2,1-c][1,4]oxazin-3-yl)-4-hydroxybenzo [d][1,3]dioxole-5-carboxamide], in test [1] (setting [4]), the EC50 amounted to 17.8 nM. Also, in test [2] (setting [5]), the IC50 is 28.3 nM. In test [3], this compound returned a Kd of 1.33 nM.

`COc1c(-c2cn(CC(=O)Nc3cc(N4CCN(C)C[C@@H]4C)nc(F)c3Cl)c3nc4n(c(=O)c23)CCC4)cc(C(N)=O)c(O)c1Cl` [I-95, (S)-3-chloro-5-(1-(2-((3-chloro-6-(2,4-dimethylpiperazin-1-yl)-2-fluoropyridin-4-yl)amino)-2-oxo-ethyl)-4-oxo-4,6,7,8-tetrahydro-1H-dipyrrolo[1,2-a:2′,3′-d]pyrimidin-3-yl)-2-hydroxy-4-methoxy-benzamide]: in test [1], the EC50 is 879 nM. Also, the IC50 in test [2] was 993 nM. Binding in test [3] was characterised by a dissociation constant (Kd) of 450 nM.

For `C[C@H]1CNCCN1c1cc(NC(=O)Cn2cc(-c3cc(C(N)=O)c(O)c4c3OCO4)c3c(=O)n4c(nc32)CC(C)(C)C4)c(Cl)c(F)n1` [I-96, (S)-7-(1-(2-((3-chloro-2-fluoro-6-(2-methyl-piperazin-1-yl)pyridin-4-yl)amino)-2-oxo-ethyl)-7,7-dimethyl-4-oxo-4,6,7,8-tetrahydro-1H-dipyrrolo[1,2-a:2′,3′-d]pyrimidin-3-yl)-4-hydroxybenzo[d][1,3] dioxole-5-carboxamide], the EC50 in test [1] is 14.2 nM. Also, in test [2], the IC50 turned out to be 17.5 nM. The compound further displayed a dissociation constant Kd in test [3] of 0.96 nM.

`C[C@@H]1CN(C)C[C@H](C)N1c1cc(NC(=O)Cn2cc(-c3cc(C(N)=O)c(O)c(F)c3F)c3c(=O)n4c(nc32)CCC4)c(Cl)c(F)n1` [I-97, 5-(1-(2-((3-chloro-2-fluoro-6-((2R,6S)-2,4,6-trimethylpiperazin-1-yl)pyridin-4-yl)amino)-2-oxoethyl)-4-oxo-4,6,7,8-tetrahydro-1H-dipyrrolo[1,2-a:2′,3′-d]pyrimidin-3-yl)-3,4-difluoro-2-hydroxy-benzamide]: in test [1], the EC50 came out at 70.9 nM. Further, the IC50 in test [2] is 63.5 nM. Moreover, in test [3], binding was characterised by a dissociation constant (Kd) of 11.9 nM.

Take `C[C@@H]1CN(C)C[C@H](C)N1c1cc(NC(=O)Cn2cc(-c3cc(C(N)=O)c(O)c4c3OCO4)c3c(=O)n4c(nc32)CCC4)c(Cl)c(F)n1` [I-98, 7-(1-(2-((3-chloro-2-fluoro-6-((2R,6S)-2,4,6-trimethylpiperazin-1-yl)pyridin-4-yl)amino)-2-oxoethyl)-4-oxo-4,6,7,8-tetrahydro-1H-dipyrrolo [1,2-a:2′,3′-d]pyrimidin-3-yl)-4-hydroxybenzo [d][1,3]dioxole-5-carboxamide]: in test [1], the half-maximal effective concentration (EC50) was 8.42 nM. Further, the IC50 in test [2] came to 8.16 nM. The Kd in test [3] was 0.96 nM.
